Test system: yeast genes (expressed mRNA)
Test: DNA chip measurement of expressed mRNA of yeast genes after culture with a toxic chemical substance
Assay type: cell-based, Saccharomyces cerevisiae S288C
Settings: for level of expressed mRNA in the presence of chemical substance / level in the absence of chemical substance: cultured two hours with the chemical substance; for The level of expressed mRNA in the presence of chemical substance/The level of expressed mRNA in the absence of chemical substance: cultured two hours with substance
Summary of the method: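 Yeast S288C, YPD 25° C; toxicant at log phase, 2 h, sublethal growth-inhibiting conc.; no-chemical control. Hot SDS/acetate RNA extraction, oligo-dT mRNA, Cy3/Cy5-dUTP RT. Whole-genome chip, 65° C >12 h. Readout: treated/control intensity ratio, ≥2 significant.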

[Cl][Cd][Cl] [(2), CdCl2]
level of expressed mRNA in the presence of chemical substance / level in the absence of chemical substance (yeast gene YDR128W): 3.9 | level of expressed mRNA in the presence of chemical substance / level in the absence of chemical substance (yeast gene YDR133C): 1.1 | level of expressed mRNA in the presence of chemical substance / level in the absence of chemical substance (yeast gene YDR250C): 1.4 | level of expressed mRNA in the presence of chemical substance / level in the absence of chemical substance (yeast gene YDR278C): 3.2 | level of expressed mRNA in the presence of chemical substance / level in the absence of chemical substance (yeast gene YDR281C): 2.6 | The level of expressed mRNA in the presence of chemical substance/The level of expressed mRNA in the absence of chemical substance (yeast gene YDR330W): 1.5 | level of expressed mRNA in the presence of chemical substance / level in the absence of chemical substance (yeast gene YDR366C): 2.0 | The level of expressed mRNA in the presence of chemical substance/The level of expressed mRNA in the absence of chemical substance (yeast gene YDR411C): 2.8 | The level of expressed mRNA in the presence of chemical substance/The level of expressed mRNA in the absence of chemical substance (yeast gene YDR511W): 1.7 | The level of expressed mRNA in the presence of chemical substance/The level of expressed mRNA in the absence of chemical substance (yeast gene YDR545W): 1.2 | The level of expressed mRNA in the presence of chemical substance/The level of expressed mRNA in the absence of chemical substance (yeast gene YEL001C): 1.0 | The level of expressed mRNA in the presence of chemical substance/The level of expressed mRNA in the absence of chemical substance (yeast gene YER004W): 1.5 | The level of expressed mRNA in the presence of chemical substance/The level of expressed mRNA in the absence of chemical substance (yeast gene YER035W): 1.6 | The level of expressed mRNA in the presence of chemical substance/The level of expressed mRNA in the absence of chemical substance (yeast gene YER079W): 1.6 | The level of expressed mRNA in the presence of chemical substance/The level of expressed mRNA in the absence of chemical substance (yeast gene YER106W): 0.7 | The level of expressed mRNA in the presence of chemical substance/The level of expressed mRNA in the absence of chemical substance (yeast gene YER158C): 0.9 | The level of expressed mRNA in the presence of chemical substance/The level of expressed mRNA in the absence of chemical substance (yeast gene YER163C): 2.4 | The level of expressed mRNA in the presence of chemical substance/The level of expressed mRNA in the absence of chemical substance (yeast gene YER175C): 1.2 | The level of expressed mRNA in the presence of chemical substance/The level of expressed mRNA in the absence of chemical substance (yeast gene YFL006W): 2.8 | The level of expressed mRNA in the presence of chemical substance/The level of expressed mRNA in the absence of chemical substance (yeast gene YFL010C): 4.8 | The level of expressed mRNA in the presence of chemical substance/The level of expressed mRNA in the absence of chemical substance (yeast gene YFL024C): 1.1 | The level of expressed mRNA in the presence of chemical substance/The level of expressed mRNA in the absence of chemical substance (yeast gene YFL032W): 1.5 | level of expressed mRNA in the presence of chemical substance / level in the absence of chemical substance (yeast gene YFR026C): 2.0 | The level of expressed mRNA in the presence of chemical substance/The level of expressed mRNA in the absence of chemical substance (yeast gene YGL037C): 2.7 | The level of expressed mRNA in the presence of chemical substance/The level of expressed mRNA in the absence of chemical substance (yeast gene YGL047W): 1.9 | The level of expressed mRNA in the presence of chemical substance/The level of expressed mRNA in the absence of chemical substance (yeast gene YGL053W): 1.5 | level of expressed mRNA in the presence of chemical substance / level in the absence of chemical substance (yeast gene YGL088W): 2.1 | The level of expressed mRNA in the presence of chemical substance/The level of expressed mRNA in the absence of chemical substance (yeast gene YGL121C): 5.0 | The level of expressed mRNA in the presence of chemical substance/The level of expressed mRNA in the absence of chemical substance (yeast gene YGL199C): 1.7 | level of expressed mRNA in the presence of chemical substance / level in the absence of chemical substance (yeast gene YGR038W): 1.2 | The level of expressed mRNA in the presence of chemical substance/The level of expressed mRNA in the absence of chemical substance (yeast gene YGR101W): 1.3 | The level of expressed mRNA in the presence of chemical substance/The level of expressed mRNA in the absence of chemical substance (yeast gene YGR110W): 3.1 | The level of expressed mRNA in the presence of chemical substance/The level of expressed mRNA in the absence of chemical substance (yeast gene YGR130C): 0.7 | level of expressed mRNA in the presence of chemical substance / level in the absence of chemical substance (yeast gene YGR139W): 3.7 | The level of expressed mRNA in the presence of chemical substance/The level of expressed mRNA in the absence of chemical substance (yeast gene YGR154C): 2.9 | The level of expressed mRNA in the presence of chemical substance/The level of expressed mRNA in the absence of chemical substance (yeast gene YGR221C): 2.2 | level of expressed mRNA in the presence of chemical substance / level in the absence of chemical substance (yeast gene YGR243W): 2.2 | level of expressed mRNA in the presence of chemical substance / level in the absence of chemical substance (yeast gene YGR293C): 1.9 | level of expressed mRNA in the presence of chemical substance / level in the absence of chemical substance (yeast gene YHL006C): 1.4 | level of expressed mRNA in the presence of chemical substance / level in the absence of chemical substance (yeast gene YHR095W): 2.6 | level of expressed mRNA in the presence of chemical substance / level in the absence of chemical substance (yeast gene YHR105W): 0.8 | The level of expressed mRNA in the presence of chemical substance/The level of expressed mRNA in the absence of chemical substance (yeast gene YHR138C): 1.8 | level of expressed mRNA in the presence of chemical substance / level in the absence of chemical substance (yeast gene YHR181W): 0.7 | The level of expressed mRNA in the presence of chemical substance/The level of expressed mRNA in the absence of chemical substance (yeast gene YHR199C): 2.0 | The level of expressed mRNA in the presence of chemical substance/The level of expressed mRNA in the absence of chemical substance (yeast gene YIL023C): 1.2 | The level of expressed mRNA in the presence of chemical substance/The level of expressed mRNA in the absence of chemical substance (yeast gene YIL041W): 1.2 | The level of expressed mRNA in the presence of chemical substance/The level of expressed mRNA in the absence of chemical substance (yeast gene YIL087C): 1.9 | level of expressed mRNA in the presence of chemical substance / level in the absence of chemical substance (yeast gene YIL127C): 4.8 | level of expressed mRNA in the presence of chemical substance / level in the absence of chemical substance (yeast gene YJL017W): 1.7 | level of expressed mRNA in the presence of chemical substance / level in the absence of chemical substance (yeast gene YJL037W): 1.4 | The level of expressed mRNA in the presence of chemical substance/The level of expressed mRNA in the absence of chemical substance (yeast gene YJL057C): 1.2 | The level of expressed mRNA in the presence of chemical substance/The level of expressed mRNA in the absence of chemical substance (yeast gene YJL066C): 1.2 | The level of expressed mRNA in the presence of chemical substance/The level of expressed mRNA in the absence of chemical substance (yeast gene YJL082W): 0.8

Reference: US20100041089A1, “IMPROVED METHOD FOR DETECTING CHEMICAL […]” (priority 2006, published 2010)
